# Results published in patent publication US20030104507A1, “Method for detection of ATP” (priority 2001, published 2003).
# Legend:
# [1] = system: LucPpe2m146; experiment: Stability of reagent composition with LucPpe2m146 and detergent (RT, pH 7.0); format: biochemical, Photuris pennsylvanica
# Outline: (§1)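 Reagent with 50 μg/ml luciferase, luciferin, MgSO4, buffer and detergent at varying concentrations held at about 23° C; enzyme added just before first read. At timepoints, aliquots mixed 1:1 with media containing ATP and luminescence read immediately (0.5 s/well, triplicate); reaction half-lives and percent of original luminescence derived.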
# [2] = molecular target: T1, LucPpy (Photinus pyralis, UniProt P08659); experiment: Stability of reagent composition with LucPpy and detergent (RT, pH 7.0); format: biochemical; conditions: for Half-life of Luminescence Activity: Common firefly luciferase (P. pyralis); for Average Relative Light Units / Percent of Luminescence Remaining: LucPpy
# T1 construct: purchased Promega E170A
# Outline: as §1
# [3] = LucPpe2m146, 0.02%, 1.0 min (head r67)
# [4] = LucPpe2m146, 0.02%, 1.0 min (times of Table I r67)
# [5] = LucPpe2m146, 0.02%, 34 min (head r67)
# [6] = LucPpe2m146, 0.02%, 34 min (times of Table I r67)
# [7] = LucPpe2m146, 0.02%, 65 min (head r67)
# [8] = LucPpe2m146, 0.02%, 65 min (times of Table I r67)
# [9] = LucPpe2m146, 0.02%, 115 min (head r67)
# [10] = LucPpe2m146, 0.02%, 115 min (times of Table I r67)
# [11] = LucPpe2m146, 0.02%, 175 min (head r67)
# [12] = LucPpe2m146, 0.02%, 175 min (times of Table I r67)
# [13] = LucPpe2m146, 0.02%, 238 min (head r67)
# [14] = LucPpe2m146, 0.02%, 238 min (times of Table I r67)
# [15] = LucPpe2m146, 0.02%, 286 min (head r67)
# [16] = LucPpe2m146, 0.02%, 286 min (times of Table I r67)
# [17] = LucPpe2m146, 0.1%, 1.0 min (head r54)
# [18] = LucPpe2m146, 0.1%, 1.0 min (times of Table I r54)
# [19] = LucPpe2m146, 0.1%, 34 min (head r54)
# [20] = LucPpe2m146, 0.1%, 34 min (times of Table I r54)
# [21] = LucPpe2m146, 0.1%, 65 min (head r54)
# [22] = LucPpe2m146, 0.1%, 65 min (times of Table I r54)
# [23] = LucPpe2m146, 0.1%, 115 min (head r54)
# [24] = LucPpe2m146, 0.1%, 115 min (times of Table I r54)
# [25] = LucPpe2m146, 0.1%, 175 min (head r54)
# [26] = LucPpe2m146, 0.1%, 175 min (times of Table I r54)
# [27] = LucPpe2m146, 0.1%, 238 min (head r54)
# [28] = LucPpe2m146, 0.1%, 238 min (times of Table I r54)
# [29] = LucPpe2m146, 0.1%, 286 min (head r54)
# [30] = LucPpe2m146, 0.1%, 286 min (times of Table I r54)
# [31] = LucPpe2m146, 0.5%, 15 min (head r41)
# [32] = LucPpe2m146, 0.5%, 15 min (times of Table I r41)
# [33] = LucPpe2m146, 0.5%, 72 min (head r41)
# [34] = LucPpe2m146, 0.5%, 72 min (times of Table I r41)
# [35] = LucPpe2m146, 0.5%, 124 min (head r41)
# [36] = LucPpe2m146, 0.5%, 124 min (times of Table I r41)
# [37] = LucPpe2m146, 0.5%, 190 min (head r41)
# [38] = LucPpe2m146, 0.5%, 190 min (times of Table I r41)
# [39] = LucPpe2m146, 0.5%, 251 min (head r41)
# [40] = LucPpe2m146, 0.5%, 251 min (times of Table I r41)
# [41] = 0.02%, 0.75 min (times of Table I r32)
# [42] = 0.02%, 38 min (times of Table I r32)
# [43] = 0.02%, 70 min (times of Table I r32)
# [44] = 0.1%, 0.75 min (times of Table I r18)
# [45] = 0.5%, 0.75 min (times of Table I r5)
structure (smiles),measurement,setting,value
"CCCCCCCCCCCC[N+](C)(C)Cc1ccccc1.[Br-] [BDDABr, Benzyldimethyldodecylammonium bromide]",Average Relative Light Units,[1]; [3],26548.60 rlu
same,Percent of Luminescence Remaining,[1]; [4],100.00%
same,Average Relative Light Units,[1]; [5],26272.87 rlu
same,Percent of Luminescence Remaining,[1]; [6],98.96%
same,Average Relative Light Units,[1]; [7],25766.43 rlu
same,Percent of Luminescence Remaining,[1]; [8],97.05%
same,Average Relative Light Units,[1]; [9],24155.00 rlu
same,Percent of Luminescence Remaining,[1]; [10],90.98%
same,Average Relative Light Units,[1]; [11],25891.70 rlu
same,Percent of Luminescence Remaining,[1]; [12],97.53%
same,Average Relative Light Units,[1]; [13],24959.1 rlu
same,Percent of Luminescence Remaining,[1]; [14],94.01%
same,Average Relative Light Units,[1]; [15],24510.1 rlu
same,Percent of Luminescence Remaining,[1]; [16],92.32%
same,Average Relative Light Units,[1]; [17],29.71 rlu
same,Percent of Luminescence Remaining,[1]; [18],100.00%
same,Average Relative Light Units,[1]; [19],66.09 rlu
same,Percent of Luminescence Remaining,[1]; [20],222.47%
same,Average Relative Light Units,[1]; [21],62.19 rlu
same,Percent of Luminescence Remaining,[1]; [22],209.32%
same,Average Relative Light Units,[1]; [23],45.18 rlu
same,Percent of Luminescence Remaining,[1]; [24],152.09%
same,Average Relative Light Units,[1]; [25],33.89 rlu
same,Percent of Luminescence Remaining,[1]; [26],114.06%
same,Average Relative Light Units,[1]; [27],34.46 rlu
same,Percent of Luminescence Remaining,[1]; [28],115.98%
same,Average Relative Light Units,[1]; [29],126.90 rlu
same,Percent of Luminescence Remaining,[1]; [30],427.13%
same,Average Relative Light Units,[1]; [31],2.040 rlu
same,Percent of Luminescence Remaining,[1]; [32],100.00%
same,Average Relative Light Units,[1]; [33],1.140 rlu
same,Percent of Luminescence Remaining,[1]; [34],55.90%
same,Average Relative Light Units,[1]; [35],0.998 rlu
same,Percent of Luminescence Remaining,[1]; [36],48.93%
same,Average Relative Light Units,[1]; [37],0.899 rlu
same,Percent of Luminescence Remaining,[1]; [38],44.07%
same,Average Relative Light Units,[1]; [39],1.042 rlu
same,Percent of Luminescence Remaining,[1]; [40],51.10%
same,Half-life of Luminescence Activity,[2]; conc. 0.100,no activity
same,Half-life of Luminescence Activity,[2]; conc. 0.500,no activity
same,Average Relative Light Units,"[2]; 0.02%, 0.75 min (head r32)",2894.700 rlu
same,Percent of Luminescence Remaining,[2]; [41],100.00%
same,Average Relative Light Units,"[2]; 0.02%, 38 min (head r32)",0.035 rlu
same,Percent of Luminescence Remaining,[2]; [42],0.00%
same,Average Relative Light Units,"[2]; 0.02%, 70 min (head r32)",0.015 rlu
same,Percent of Luminescence Remaining,[2]; [43],0.00%
same,Average Relative Light Units,"[2]; 0.02%, 94 min (head r32)",0.016 rlu
same,Average Relative Light Units,"[2]; 0.02%, 122 min (head r32)",0.011 rlu
same,Average Relative Light Units,"[2]; 0.1%, 0.75 min (head r18)",0.007 rlu
same,Percent of Luminescence Remaining,[2]; [44],100.00%
same,Average Relative Light Units,"[2]; 0.5%, 0.75 min (head r5)",0.001 rlu
same,Percent of Luminescence Remaining,[2]; [45],100.00%
"C[C@H](CCC(=O)[O-])[C@H]1CC[C@H]2[C@@H]3CC[C@@H]4C[C@H](O)CC[C@]4(C)[C@H]3C[C@H](O)[C@]12C.[Na+] [Deoxycholate, sodium deoxycholate]",Average Relative Light Units,[1]; [3],24307.30 rlu
same,Percent of Luminescence Remaining,[1]; [4],100.00%
same,Average Relative Light Units,[1]; [5],24639.00 rlu
same,Percent of Luminescence Remaining,[1]; [6],101.36%
same,Average Relative Light Units,[1]; [7],24717.97 rlu
same,Percent of Luminescence Remaining,[1]; [8],101.69%
same,Average Relative Light Units,[1]; [9],23158.37 rlu
same,Percent of Luminescence Remaining,[1]; [10],95.27%
same,Average Relative Light Units,[1]; [11],24655.43 rlu
same,Percent of Luminescence Remaining,[1]; [12],101.43%
same,Average Relative Light Units,[1]; [13],24320.6 rlu
same,Percent of Luminescence Remaining,[1]; [14],100.05%
same,Average Relative Light Units,[1]; [15],24303.9 rlu
same,Percent of Luminescence Remaining,[1]; [16],99.99%
same,Average Relative Light Units,[1]; [17],5150.43 rlu
same,Percent of Luminescence Remaining,[1]; [18],100.00%
same,Average Relative Light Units,[1]; [19],5031.12 rlu
same,Percent of Luminescence Remaining,[1]; [20],97.68%
same,Average Relative Light Units,[1]; [21],6855.67 rlu
same,Percent of Luminescence Remaining,[1]; [22],133.11%
same,Average Relative Light Units,[1]; [23],6340.45 rlu
same,Percent of Luminescence Remaining,[1]; [24],123.11%
same,Average Relative Light Units,[1]; [25],7347.09 rlu
same,Percent of Luminescence Remaining,[1]; [26],142.65%
same,Average Relative Light Units,[1]; [27],6801.23 rlu
same,Percent of Luminescence Remaining,[1]; [28],132.05%
same,Average Relative Light Units,[1]; [29],7472.54 rlu
same,Percent of Luminescence Remaining,[1]; [30],145.09%
same,Average Relative Light Units,[1]; [31],45.977 rlu
same,Percent of Luminescence Remaining,[1]; [32],100.00%
same,Average Relative Light Units,[1]; [33],229.874 rlu
same,Percent of Luminescence Remaining,[1]; [34],499.98%
same,Average Relative Light Units,[1]; [35],2059.397 rlu
same,Percent of Luminescence Remaining,[1]; [36],4479.22%
same,Average Relative Light Units,[1]; [37],1414.397 rlu
same,Percent of Luminescence Remaining,[1]; [38],3076.34%
same,Average Relative Light Units,[1]; [39],1342.963 rlu
same,Percent of Luminescence Remaining,[1]; [40],2920.97%
same,Average Relative Light Units,"[2]; 0.02%, 0.75 min (head r32)",3199.250 rlu
same,Percent of Luminescence Remaining,[2]; [41],100.00%
same,Average Relative Light Units,"[2]; 0.02%, 38 min (head r32)",2844.010 rlu
same,Percent of Luminescence Remaining,[2]; [42],88.90%
same,Average Relative Light Units,"[2]; 0.02%, 70 min (head r32)",2626.260 rlu
same,Percent of Luminescence Remaining,[2]; [43],82.09%
same,Average Relative Light Units,"[2]; 0.02%, 94 min (head r32)",2496.570 rlu
same,Percent of Luminescence Remaining,"[2]; 0.02%, 94 min (times of Table I r32)",78.04%
same,Average Relative Light Units,"[2]; 0.02%, 122 min (head r32)",2314.910 rlu
same,Percent of Luminescence Remaining,"[2]; 0.02%, 122 min (times of Table I r32)",72.3%
same,Average Relative Light Units,"[2]; 0.1%, 0.75 min (head r18)",19.771 rlu
same,Percent of Luminescence Remaining,[2]; [44],100.00%
same,Average Relative Light Units,"[2]; 0.1%, 10 min (head r18)",0.180 rlu
same,Percent of Luminescence Remaining,"[2]; 0.1%, 10 min (times of Table I r18)",0.91%
same,Average Relative Light Units,"[2]; 0.1%, 36 min (head r18)",0.026 rlu
same,Percent of Luminescence Remaining,"[2]; 0.1%, 36 min (times of Table I r18)",0.13%
same,Average Relative Light Units,"[2]; 0.5%, 0.75 min (head r5)",4.801 rlu
same,Percent of Luminescence Remaining,[2]; [45],100.00%
same,Average Relative Light Units,"[2]; 0.5%, 21 min (head r5)",0.012 rlu
same,Percent of Luminescence Remaining,"[2]; 0.5%, 21 min (times of Table I r5)",0.25%
same,Average Relative Light Units,"[2]; 0.5%, 39 min (head r5)",0.007 rlu
same,Percent of Luminescence Remaining,"[2]; 0.5%, 39 min (times of Table I r5)",0.15%
